Measured values taken from patent publication US8476307B2, “Pharmaceutical composition based on idazoxan, salts, hydrates or polymorphs thereof” (Pierre Fabre Medicament, priority 2003, dated 2013).
Where a name gives a salt, the structure may show the parent alone. Read-outs that look alike come from different tables or passages of the source.

Columns and labels:
[1] = Pharmacokinetics of the enantiomers of idazoxan in healthy male subjects; details: for AUC0-∞ of R(−) idazoxan / AUC0-∞ of S(+) idazoxan / CLtot/F of R(−) idazoxan / CLtot/F of S(+) idazoxan / Cmax of R(−) idazoxan / Cmax of S(+) idazoxan / Tmax of R(−) idazoxan / Tmax of S(+) idazoxan / t1/2 of R(−) idazoxan / t1/2 of S(+) idazoxan: single administration of the racemate (20 mg) or of the enantiomer alone (10 mg)
Experimental: Young healthy male subjects were allocated at random to receive a single dose of each of the following substances on one occasion: 20 mg of idazoxan racemate (polymorph of form I); 10 mg of the R(−) enantiomer; 10 mg of the S(+) enantiomer.

[2] = ICH criteria
[3] = Solubility in various solvents
α2-adrenoreceptors = assay: α2-adrenoreceptor binding in rat cortical tissue; details: initially, without preincubation
Experimental: (§1) The binding values of the α2-adrenoreceptors for the two enantiomers were evaluated using rat cortical tissue. In addition, the biological activity was evaluated by the inhibition of the hypothermia induced by guanabenz in mice.

[4] = test system: hypothermia induced by guanabenz; assay: Inhibition of the hypothermia induced by guanabenz; type: in vivo, mice; details: initially, without preincubation
Experimental: as §1

## Cl.c1ccc2c(c1)OCC(C1=NCCN1)O2 (stereo not drawn) [Form I]
[1]
  AUC0-∞ of R(−) idazoxan: 58 ± 23 ng·h/mL
  AUC0-∞ of S(+) idazoxan: 44 ± 21 ng·h/mL
  CLtot/F of R(−) idazoxan: 170 ± 76 L/h
  CLtot/F of S(+) idazoxan: 245 ± 136 L/h
  Cmax of R(−) idazoxan: 11.9 ± 4.6 ng/mL
  Cmax of S(+) idazoxan: 8.3 ± 3.6 ng/mL
  Tmax of R(−) idazoxan: 2.1 ± 0.7 h
  Tmax of S(+) idazoxan: 2.1 ± 0.7 h
  t1/2 of R(−) idazoxan: 3.3 ± 0.4 h
  t1/2 of S(+) idazoxan: 3.3 ± 0.4 h
[2]
  photostability: no decomposition
25° C./60% RH, listed as 500
  Long-term stability: 24 months
25° C./60% RH, listed as 501
  Long-term stability: 24 months
25° C./60% RH, listed as 503
  Long-term stability: 9 months
25° C./60% RH, listed as 504
  Long-term stability: 9 months
25° C./60% RH, listed as OP2
  Long-term stability: 24 months
30° C./70% RH, listed as 500
  Long-term stability: 24 months
30° C./70% RH, listed as 501
  Long-term stability: 24 months
30° C./70% RH, listed as 503
  Long-term stability: 6 months
30° C./70% RH, listed as 504
  Long-term stability: 6 months
30° C./70% RH, listed as OP2
  Long-term stability: 24 months
40° C./75% RH, listed as 500
  Long-term stability: 6 months
40° C./75% RH, listed as 501
  Long-term stability: 6 months
40° C./75% RH, listed as 503
  Long-term stability: 6 months
40° C./75% RH, listed as 504
  Long-term stability: 6 months
40° C./75% RH, listed as OP2
  Long-term stability: 9 months
[3]; batches of the form I
  solubility in water: Freely soluble
[3]; batches of the form I, listed as 503
  solubility in ethanol: Soluble

## c1ccc2c(c1)OCC(C1=NCCN1)O2 (stereo not drawn) [Idazoxan hydrochloride, 2-(2-imidazolinyl)-1,4-benzodioxane hydrochloride]
[3]; powder
  solubility in ethanol: soluble to fairly soluble
  solubility in methanol: readily soluble
  solubility in water: readily soluble

## c1ccc2c(c1)OC[C@@H](C1=NCCN1)O2 [R(−) Idazoxan]
[1]
  AUC0-∞ of R(−) idazoxan: 43 ± 19 ng·h/mL
  AUC0-∞ of S(+) idazoxan: 14 ± 8 ng·h/mL
  CLtot/F of R(−) idazoxan: 230 ± 92 L/h
  Cmax of R(−) idazoxan: 10.2 ± 3.9 ng/mL
  Cmax of S(+) idazoxan: 1.6 ± 1.0 ng/mL
  Tmax of R(−) idazoxan: 2.5 ± 0.5 h
  Tmax of S(+) idazoxan: 4.0 ± 0 h
  t1/2 of R(−) idazoxan: 3.1 ± 0.6 h
  t1/2 of S(+) idazoxan: 4.1 ± 0.5 h

## c1ccc2c(c1)OC[C@H](C1=NCCN1)O2 [S(+)Idazoxan]
α2-adrenoreceptors
  binding affinity relative to the R(−) form: ten times greater
[4]
  effectiveness in the antagonism of the hypothermia relative to the R(−) form: 15 times
[1]; human, in vivo
  apparent clearance relative to the R(−) enantiomer: approximately 1.5 times
  distribution relative to the R(−) enantiomer: approximately 1.5 times
[1]; in vivo
  t1/2 for conversion of S(+) to R(−): 4 h
[1]
  AUC0-∞ of R(−) idazoxan: 11 ± 6 ng·h/mL
  AUC0-∞ of S(+) idazoxan: 27 ± 13 ng·h/mL
  CLtot/F of S(+) idazoxan: 397 ± 205 L/h
  Cmax of R(−) idazoxan: 1.3 ± 0.7 ng/mL
  Cmax of S(+) idazoxan: 7.2 ± 5.1 ng/mL
  Tmax of R(−) idazoxan: 3.7 ± 0.5 h
  Tmax of S(+) idazoxan: 2.1 ± 0.8 h
  t1/2 of R(−) idazoxan: 3.7 ± 0.4 h
  t1/2 of S(+) idazoxan: 7.8 ± 0.5 h
